Assay results as given in PMC10381184, “Unprecedented Antimicrobial and Cytotoxic Polyketides from Cultures of Diaporthe africana sp. nov” (Journal of Fungi, 2023).
Converted amounts (≈) assume the structure as drawn. Like-named read-outs stand apart in the source and are kept apart here. Marks after values point to notes of the source that are not given here.

How the values were obtained:
[1] = tested on: Rhodotorula glutinis DSM 10134; experiment: MIC serial dilution assay; assay type: cell-based; design: key: (-): No inhibition; details: Rhodoturula glutinis, starting concentration 66.7 μg/mL
Description: (§1) The Minimum Inhibitory Concentration (MIC) of the isolated metabolites (1–8) was evaluated using serial dilution assays in a 96-well microtiter plate against a panel of Gram-positive bacteria, namely Bacillus subtilis DSM 10, Mycobacterium smegmatis ATCC 700084 and Staphylococcus aureus DSM 346; Gram-negative bacteria, including Acinetobacter baumannii DSM 30008, Chromobacterium violaceum DSM 30191, Escherichia coli DSM 1116 and Pseudomonas aeruginosa PA14 and fungal cultures of Candida albicans DSM 1665, Mucor hiemalis DSM 2656, Rhodotorula glutinis DSM 10134, Schizosaccharomyces pombe DSM 70572 and Wickerhamomyces anomalus DSM 6766, according to previously described protocols. The MTT-based cytotoxicity assay was performed against several cancer cell lines (human endocervical adenocarcinoma KB 3.1, mouse fibroblasts L929, squamous cancer A431, breast cancer MCF-7, lung cancer A549, ovary cancer SK-OV-3, and prostate cancer PC-3) in accordance with our previously established protocols.

Mucor hiemalis DSM 2656 = experiment: MIC serial dilution assay; assay type: cell-based; design: key: (-): No inhibition
Description: as §1

Bacillus subtilis DSM 10 = experiment: MIC serial dilution assay; assay type: cell-based; design: key: (-): No inhibition
Description: as §1

[2] = tested on: Staphylococcus aureus DSM 346; experiment: MIC serial dilution assay; assay type: cell-based; design: key: (-): No inhibition
Description: as §1

[3] = tested on: Escherichia coli DSM 1116; experiment: MIC serial dilution assay; assay type: cell-based; design: key: (-): No inhibition; details: starting concentration 66.7 μg/mL
Description: as §1

[4] = tested on: Schizosaccharomyces pombe DSM 70572; experiment: MIC serial dilution assay; assay type: cell-based; design: key: (-): No inhibition
Description: as §1

[5] = tested on: Acinetobacter baumannii DSM 30008; experiment: MIC serial dilution assay; assay type: cell-based; design: key: (-): No inhibition; details: Acinetobacter baumanii; starting concentration 66.7 μg/mL
Description: as §1

[6] = tested on: Mycobacterium smegmatis ATCC 700084; experiment: MIC serial dilution assay; assay type: cell-based; design: key: (-): No inhibition; details: starting concentration 66.7 μg/mL
Description: as §1

[7] = tested on: Pseudomonas aeruginosa PA14; experiment: MIC serial dilution assay; assay type: cell-based; design: key: (-): No inhibition
Description: as §1

[8] = tested on: Chromobacterium violaceum DSM 30191; experiment: MIC serial dilution assay; assay type: cell-based; design: key: (-): No inhibition; details: starting concentration 66.7 μg/mL
Description: as §1

[9] = tested on: Candida albicans DSM 1665; experiment: MIC serial dilution assay; assay type: cell-based; design: key: (-): No inhibition; details: starting concentration 66.7 μg/mL
Description: as §1

[10] = tested on: Wickerhamomyces anomalus DSM 6766; experiment: MIC serial dilution assay; assay type: cell-based; design: key: (-): No inhibition
Description: as §1

[11] = tested on: panel of bacteria and fungi; experiment: Antimicrobial serial dilution assay, whole panel; assay type: cell-based; details: result in words
Description: as §1

[12] = tested on: human endocervical adenocarcinoma KB 3.1; experiment: MTT-based cytotoxicity assay; assay type: cell-based; details: KB3.1, starting concentration 37 µg/mL
Description: as §1

mouse fibroblasts L929 = experiment: MTT-based cytotoxicity assay; assay type: cell-based; details: starting concentration 37 µg/mL, read-out: IC50
Description: as §1

MptpB = details: result in words; ref 63 (Cui et al.); cited from earlier work
lung cancer A549 = experiment: MTT-based cytotoxicity assay; assay type: cell-based; details: starting concentration 37 µg/mL, read-out: IC50
Description: as §1

squamous cancer A431 = experiment: MTT-based cytotoxicity assay; assay type: cell-based; details: A431, starting concentration 37 µg/mL, read-out: IC50
Description: as §1

prostate cancer PC-3 = experiment: MTT-based cytotoxicity assay; assay type: cell-based; details: PC-3; starting concentration 37 µg/mL; read-out: IC50
Description: as §1

ovary cancer SK-OV-3 = experiment: MTT-based cytotoxicity assay; assay type: cell-based; details: SKOV-3, starting concentration 37 µg/mL, read-out: IC50
Description: as §1

breast cancer MCF-7 = experiment: MTT-based cytotoxicity assay; assay type: cell-based; details: MCF-7, starting concentration 37 µg/mL, read-out: IC50
Description: as §1

mammalian cell lines = experiment: cells; assay type: cell-based; details: A431, MCF-7, A549, SKOV-3 and PC-3; read-out: IC50, range over five other mammalian cell lines
Description: as §1

[13] = starting concentration 66.7 μg/mL
[14] = Homo sapiens, KB 3-1, read-out: IC50

| Compound | MIC [1] | MIC (Mucor hiemalis DSM 2656; [13]) | MIC [3] | MIC [4, 13] | MIC [5] | MIC [6] | MIC [7, 13] | MIC [8] | MIC [9] | MIC [10, 13] | further results |
| --- | --- | --- | --- | --- | --- | --- | --- | --- | --- | --- | --- |
| CC(C)=CCc1ccc(O)c2c1C(O)(c1cc(C)cc3c1OC(C(C)(C)O)CO3)OC2=O (stereo not shown) [Compound 2, isoprenylisobenzofuran B] | - | - | - | - | - | - | - | - | - | - | MIC (Bacillus subtilis DSM 10; [13]): -; MIC [2, 13]: -; antimicrobial activity against the tested microorganisms [11]: no activity; IC50 [12, 14]: > 84 µM; IC50 [12]: slight inhibition; IC50 (mouse fibroblasts L929; Mus musculus): > 84 µM |
| C[C@@H]1[C@H](O)[C@@H](C)/C=C/C=C/CC/C=C/C=C/C=C/C=C/C(O[C@H]2O[C@H](C)[C@@H](O)[C@H](N)[C@@H]2O)CC2O[C@](O)(CC(O)C(O)CCC(O)CC(O)CC(O)CC(=O)O[C@H]1C)CC(O)C2C(=O)O (stereo partly shown) [Nystatin, reference compound] | 4.2 ^n µg/mL | 8.3 ^n µg/mL |  | 8.3 ^n µg/mL |  |  |  |  | 16.6 ^n µg/mL | 8.3 ^n µg/mL | MIC (Mucor hiemalis DSM 2656; starting concentration 66.7 μg/mL, listed as nystatin): 8.3 µg/mL (≈ 8.96 µM) |
| CNC(C)C1CCC(N)C(OC2C(N)CC(N)C(OC3OCC(C)(O)C(NC)C3O)C2O)O1 (stereo not shown) [Gentamicin, reference compound] |  |  |  |  |  |  |  |  |  |  | MIC ([7]; PA14, starting concentration 66.7 μg/mL, read-out: MIC): 0.21 µg/mL (≈ 0.44 µM) |
| CC(C)=CCc1ccc(O)c2c1[C@@H](c1cc(C)cc3c1O[C@H](C(C)(C)O)CO3)NC2=O [diaporisoindole A] |  |  |  |  |  |  |  |  |  |  | inhibitory activity against MptpB (MptpB): potent inhibitory activity |
| NC[C@H]1O[C@H](O[C@H]2[C@H](O)[C@@H](O[C@H]3O[C@H](CO)[C@@H](O)[C@H](N)[C@H]3O)[C@H](N)C[C@@H]2N)[C@H](O)[C@@H](O)[C@@H]1O [Kanamycin, reference compound] |  |  |  |  |  | 1.7 ^k µg/mL |  |  |  |  |  |
| CC(C)=CCc1ccc(O)c(C=O)c1C(=O)c1cc(C)cc2c1OC(C(C)(C)O)CO2 (stereo not shown) [Compound 6, tenellone B] |  |  | - |  | - | - | - | - | - |  | MIC ([1]; Rhodotorula glutinis, DSM10134, read-out: MIC): 16.6 µg/mL (≈ 39.1 µM); MIC (Mucor hiemalis DSM 2656; DSM2656, starting concentration 66.7 μg/mL, read-out: MIC): 16.6 µg/mL (≈ 39.1 µM); MIC (Bacillus subtilis DSM 10; DSM10, starting concentration 66.7 μg/mL, read-out: MIC): 16.6 µg/mL (≈ 39.1 µM); MIC ([2]; DSM346, starting concentration 66.7 μg/mL, read-out: MIC): 16.6 µg/mL (≈ 39.1 µM); MIC ([4]; DSM70572, starting concentration 66.7 μg/mL, read-out: MIC): 66.6 µg/mL (≈ 157 µM); MIC ([10]; Hansenula anomala, DSM6766, starting concentration 66.7 μg/mL, read-out: MIC): 66.6 µg/mL (≈ 157 µM); IC50 (lung cancer A549; Homo sapiens): 20.8 µM; IC50 (squamous cancer A431; Homo sapiens, A-431): 19.3 µM; IC50 [12, 14]: 20 µM; IC50 (mouse fibroblasts L929; Mus musculus): 49.5 µM; IC50 (prostate cancer PC-3): 17.9 µM; IC50 (ovary cancer SK-OV-3; Homo sapiens, SK-OV-3): 42.5 µM; IC50 (breast cancer MCF-7; Homo sapiens, MCF7): 17.7 µM; IC50 (mammalian cell lines): 17.7 to 42.5 µM |
| beauvericin [Compound 8] | 66.6 µg/mL | 66.6 µg/mL | - | 33.3 µg/mL | - | 8.3 µg/mL | - | - | - | - | MIC (Bacillus subtilis DSM 10; [13]): 8.3 µg/mL; MIC [2, 13]: 8.3 µg/mL; IC50 (lung cancer A549): 2.6 µM; IC50 (squamous cancer A431): 2.4 µM; IC50 ([12]; read-out: IC50): 2.3 µM; IC50 (mouse fibroblasts L929): 2.8 µM; IC50 (prostate cancer PC-3): 1.9 µM; IC50 (ovary cancer SK-OV-3): 3.3 µM; IC50 (breast cancer MCF-7): 2 µM |
